# US20070043036A1, “2-Pyridone derivatives as neutrophil elastase inhibitors and their use” (priority 2003, published 2007)
# Molecular target: T1, Human Neutrophil Elastase (HNE) (Homo sapiens, UniProt P08246)
# T1 construct: Human Neutrophil Elastase (HNE) purified from serum; purchased Calbiochem 324681; host or cells: natural source; printed as 'purified from serum'
# T1 sequence (P08246 30-247 limits assumed): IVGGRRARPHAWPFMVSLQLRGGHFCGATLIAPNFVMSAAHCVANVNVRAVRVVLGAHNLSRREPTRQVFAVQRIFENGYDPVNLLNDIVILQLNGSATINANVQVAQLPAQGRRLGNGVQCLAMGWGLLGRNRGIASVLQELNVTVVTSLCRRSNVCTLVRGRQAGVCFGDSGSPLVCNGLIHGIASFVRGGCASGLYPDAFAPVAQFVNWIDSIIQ
# Test: Human Neutrophil Elastase Quenched-FRET Assay
# Format: biochemical
# Settings: HNE purified from serum; substrate MeOSuc-AAPV-AMC; 15 min pre-incubation, 30 min incubation at room temperature; read-out: Inhibition of Human Neutrophil Elastase IC50
# Description: Human Neutrophil Elastase Quenched-FRET Assay
# The assay uses Human Neutrophil Elastase (HNE) purified from serum (Calbiochem art. 324681; Ref. Baugh, R. J. et al., 1976, Biochemistry. 15, 836-841). HNE was stored in as 50 mM NaOAc, 200 mM NaCl, pH 5.5 with added 30% glycerol at −20° C. The protease substrate used was Elastase Substrate V Fluorogenic, MeOSuc-AAPV-AMC (Calbiochem art. 324740; Ref. Castillo, M. J. et al., 1979, Anal. Biochem. 99, 53-64). The substrate was stored in DMSO at −20° C. The assay additions were as follows: Test compounds and controls were added to black 96-well flat-bottom plates (Greiner 655076), 1 μL in 100% DMSO, followed by 30 μL HNE in assay buffer with 0.01% TritonX-100. The assay buffer constitution was: 100 mM Tris (pH 7.5) and 500 mM NaCl. The enzyme and the compounds were incubated at room temperature for 15 minutes. Then 30 μl substrate in assay buffer was added. The assay was stopped after 30 minutes incubation at room temperature by adding 60 μl stop solution (140 mM acetic acid, 200 mM sodium monochloroacetate, 60 mM sodium acetate, pH 4.3). Fluorescence was measured on a Wallac 1420 Victor 2 instrument at settings: Excitation 380 nm, Emission 460 nm. IC50 values were determined using Xlfit curve fitting using model 205.
row,SMILES,IC50
1,"Cc1c(CCc2cccnc2)cc(C(=O)NCc2ccc(S(C)(=O)=O)cc2)c(=O)n1-c1cccc(C(F)(F)F)c1 [Example 8, 6-Methyl-N-[4-(methylsulfonyl)benzyl]-2-oxo-5-(2-pyridin-3-ylethyl)-1-[3-(trifluoromethyl)phenyl]-1,2-dihydropyridine-3-carboxamide]",83 nM
2,"CCCN(C)C(=O)c1cc(C(=O)NCc2ccc(S(C)(=O)=O)cc2)c(=O)n(-c2cccc(C(F)(F)F)c2)c1C [Example 16, 6-Methyl-2-oxo-1-(3-trifluoromethyl-phenyl)-1,2-dihydro-pyridine-3,5-dicarboxylic acid 3-(4-methanesulfonyl-benzylamide)5-(methyl-propyl-amide)]",48 nM
3,"Cc1c(C(=O)N2CCC[C@@H]2CO)cc(C(=O)NCc2ccc(S(C)(=O)=O)cc2)c(=O)n1-c1cccc(C(F)(F)F)c1 [Example 19, 5-((2R)-2-Hydroxymethyl-pyrrolidine-1-carbonyl)-6-methyl-2-oxo-1-(3-trifluoromethyl-phenyl)-1,2-dihydro-pyridine-3-carboxylic acid 3-(4-methanesulfonyl-benzylamide)]",99 nM

# Other lines, results leading:
row,IC50,SMILES
1,51 nM,"Cc1c(CNCC2CC2)cc(C(=O)NCc2ccc(S(C)(=O)=O)cc2)c(=O)n1-c1cccc(C(F)(F)F)c1 [Example 58, 5-{[(Cyclopropylmethyl)amino]methyl}-6-methyl-N-[4-(methylsulfonyl)benzyl]-2-oxo-1-[3-(trifluoromethyl)phenyl]-1,2-dihydropyridine-3-carboxamide]"
2,22 nM,"Cc1c(OCCO)cc(C(=O)NCc2ccc(S(C)(=O)=O)cc2)c(=O)n1-c1cccc(C(F)(F)F)c1 [Example 66, 5-(2-Hydroxyethoxy)-6-methyl-N-[4-(methylsulfonyl)benzyl]-2-oxo-1-[3-(trifluoromethyl)phenyl]-1,2-dihydropyridine-3-carboxamide]"
